# Assay results from the kinase profiling compilation of Christmann-Franck et al. (2016).
# Columns and labels:
# Test in all cases: KINOMEscan competition binding
# Conditions in all cases: compound 10.0 µM
# [1] = target: STK10 (human) (UniProt O94804)
# [2] = tested on: EGFR (human), P00533 [T790M/L858R]
# [3] = target: CSNK2A2 (human) (UniProt P19784)
# [4] = target: STK33 (human) (UniProt Q9BYT3)
# [5] = target: CAMK2A (human) (UniProt Q9UQM7)
# [6] = target: ADCK4 (human) (UniProt Q96D53)
# [7] = target: CDK18 (human) (UniProt Q07002)
# [8] = target: ROCK2 (human) (UniProt O75116)
# Sequence of ROCK2 (human) (O75116 whole entry, looked up): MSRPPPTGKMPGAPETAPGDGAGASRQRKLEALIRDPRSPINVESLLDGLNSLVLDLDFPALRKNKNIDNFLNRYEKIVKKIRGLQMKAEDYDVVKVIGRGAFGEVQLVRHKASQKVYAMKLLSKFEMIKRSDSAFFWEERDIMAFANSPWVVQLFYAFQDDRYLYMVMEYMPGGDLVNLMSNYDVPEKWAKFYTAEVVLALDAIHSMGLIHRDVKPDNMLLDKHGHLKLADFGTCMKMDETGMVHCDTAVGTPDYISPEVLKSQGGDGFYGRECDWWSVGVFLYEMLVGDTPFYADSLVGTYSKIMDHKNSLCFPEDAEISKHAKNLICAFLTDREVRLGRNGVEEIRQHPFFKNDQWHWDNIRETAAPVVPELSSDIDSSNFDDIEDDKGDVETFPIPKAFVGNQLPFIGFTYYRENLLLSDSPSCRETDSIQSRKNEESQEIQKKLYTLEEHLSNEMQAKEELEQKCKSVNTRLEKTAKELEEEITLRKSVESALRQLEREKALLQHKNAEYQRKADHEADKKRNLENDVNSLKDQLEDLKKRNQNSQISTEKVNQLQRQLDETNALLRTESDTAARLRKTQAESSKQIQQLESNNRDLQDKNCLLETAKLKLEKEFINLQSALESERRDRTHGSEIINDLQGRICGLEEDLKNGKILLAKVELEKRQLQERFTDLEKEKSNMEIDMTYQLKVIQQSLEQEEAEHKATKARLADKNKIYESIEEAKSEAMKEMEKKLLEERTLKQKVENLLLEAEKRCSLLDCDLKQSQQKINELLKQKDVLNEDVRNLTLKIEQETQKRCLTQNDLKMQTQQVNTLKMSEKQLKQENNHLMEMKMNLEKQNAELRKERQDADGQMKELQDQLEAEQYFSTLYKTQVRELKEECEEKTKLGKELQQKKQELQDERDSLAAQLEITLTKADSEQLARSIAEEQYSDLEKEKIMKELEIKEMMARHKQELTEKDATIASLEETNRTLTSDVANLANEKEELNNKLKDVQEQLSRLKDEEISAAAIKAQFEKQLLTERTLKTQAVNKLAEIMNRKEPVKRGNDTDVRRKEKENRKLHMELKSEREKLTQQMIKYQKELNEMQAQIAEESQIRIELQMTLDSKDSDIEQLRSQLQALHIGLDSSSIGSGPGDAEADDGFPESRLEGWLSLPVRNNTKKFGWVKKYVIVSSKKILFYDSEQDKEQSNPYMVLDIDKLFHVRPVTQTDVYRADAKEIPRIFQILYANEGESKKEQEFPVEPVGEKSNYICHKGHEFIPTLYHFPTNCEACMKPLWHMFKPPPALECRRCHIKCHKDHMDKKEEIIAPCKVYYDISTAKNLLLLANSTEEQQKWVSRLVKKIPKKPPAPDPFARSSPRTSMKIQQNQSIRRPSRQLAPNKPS
# [9] = target: PLK4 (human) (UniProt O00444)
# Sequence of PLK4 (human) (O00444 whole entry, looked up): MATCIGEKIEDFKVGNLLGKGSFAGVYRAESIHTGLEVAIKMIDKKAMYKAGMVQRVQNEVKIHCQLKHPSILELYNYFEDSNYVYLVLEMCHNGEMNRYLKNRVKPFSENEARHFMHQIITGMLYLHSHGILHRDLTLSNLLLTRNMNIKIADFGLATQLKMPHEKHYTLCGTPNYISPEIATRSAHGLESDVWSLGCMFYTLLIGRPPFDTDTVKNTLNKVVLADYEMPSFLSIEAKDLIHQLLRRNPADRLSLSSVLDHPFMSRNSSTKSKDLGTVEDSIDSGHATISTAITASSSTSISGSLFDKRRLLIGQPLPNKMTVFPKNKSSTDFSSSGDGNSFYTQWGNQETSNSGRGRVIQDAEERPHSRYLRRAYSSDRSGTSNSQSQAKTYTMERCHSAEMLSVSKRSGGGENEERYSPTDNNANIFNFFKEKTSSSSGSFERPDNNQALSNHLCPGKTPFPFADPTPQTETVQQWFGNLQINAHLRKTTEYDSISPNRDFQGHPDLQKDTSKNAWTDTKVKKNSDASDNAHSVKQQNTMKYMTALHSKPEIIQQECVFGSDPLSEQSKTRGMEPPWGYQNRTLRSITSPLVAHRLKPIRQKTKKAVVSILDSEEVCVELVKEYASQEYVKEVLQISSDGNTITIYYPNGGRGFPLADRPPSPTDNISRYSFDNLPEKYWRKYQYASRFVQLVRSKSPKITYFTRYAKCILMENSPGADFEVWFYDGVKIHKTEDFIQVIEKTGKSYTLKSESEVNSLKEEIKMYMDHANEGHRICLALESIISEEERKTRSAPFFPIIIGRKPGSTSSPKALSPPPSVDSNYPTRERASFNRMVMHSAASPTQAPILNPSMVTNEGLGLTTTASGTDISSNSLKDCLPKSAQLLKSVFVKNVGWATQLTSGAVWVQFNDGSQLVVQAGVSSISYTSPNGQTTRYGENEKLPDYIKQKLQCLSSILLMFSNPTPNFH
# [10] = target: BLK (human) (UniProt P51451)
# [11] = target: PRKX (human) (UniProt P51817)
# [12] = target: TYK2 JH1 catalytic (human) (UniProt P29597)
# [13] = target: MAPK15 (human) (UniProt Q8TD08)
# [14] = target: MAP2K2 (human) (UniProt P36507)
# [15] = target: IRAK4 (human) (UniProt Q9NWZ3)
# [16] = target: TRPM6 (human) (UniProt Q9BX84)
# [17] = target: SGK3 (human) (UniProt Q96BR1)
# [18] = target: JAK1 JH1 catalytic (human) (UniProt P23458)
# [19] = target: RIOK3 (human) (UniProt O14730)
# [20] = target: CDC42BPB (human) (UniProt Q9Y5S2)
# [21] = target: MAP4K3 (human) (UniProt Q8IVH8)
# Sequence of MAP4K3 (human) (Q8IVH8 whole entry, looked up): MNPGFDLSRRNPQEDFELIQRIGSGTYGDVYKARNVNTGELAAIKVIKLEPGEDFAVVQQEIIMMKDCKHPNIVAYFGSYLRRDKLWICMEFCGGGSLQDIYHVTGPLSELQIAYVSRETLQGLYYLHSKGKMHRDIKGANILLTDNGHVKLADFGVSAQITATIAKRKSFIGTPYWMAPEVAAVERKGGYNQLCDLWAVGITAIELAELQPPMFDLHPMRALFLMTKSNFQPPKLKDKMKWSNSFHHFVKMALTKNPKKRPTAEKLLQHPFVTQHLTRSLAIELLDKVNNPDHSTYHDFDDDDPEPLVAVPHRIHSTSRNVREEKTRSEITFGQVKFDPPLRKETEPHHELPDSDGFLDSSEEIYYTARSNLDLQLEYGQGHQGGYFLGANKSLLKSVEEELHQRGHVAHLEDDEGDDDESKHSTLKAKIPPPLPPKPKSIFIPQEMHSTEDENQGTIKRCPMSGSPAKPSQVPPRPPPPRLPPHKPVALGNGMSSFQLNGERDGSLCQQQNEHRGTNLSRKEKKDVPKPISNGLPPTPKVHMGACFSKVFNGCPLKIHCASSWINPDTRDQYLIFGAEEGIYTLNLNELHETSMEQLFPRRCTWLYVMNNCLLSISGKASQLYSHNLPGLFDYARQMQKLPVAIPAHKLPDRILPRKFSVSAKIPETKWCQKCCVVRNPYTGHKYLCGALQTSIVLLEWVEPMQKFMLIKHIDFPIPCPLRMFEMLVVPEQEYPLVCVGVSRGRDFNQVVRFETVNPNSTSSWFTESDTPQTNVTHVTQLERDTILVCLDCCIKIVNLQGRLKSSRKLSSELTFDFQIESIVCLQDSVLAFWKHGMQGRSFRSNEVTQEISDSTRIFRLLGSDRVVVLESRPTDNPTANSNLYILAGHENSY
# [22] = target: ACVR2A (human) (UniProt P27037)
# [23] = target: EGFR (human) (UniProt P00533)
# [24] = target: ALK (human) (UniProt Q9UM73)
# Sequence of ALK (human) (Q9UM73 whole entry, looked up): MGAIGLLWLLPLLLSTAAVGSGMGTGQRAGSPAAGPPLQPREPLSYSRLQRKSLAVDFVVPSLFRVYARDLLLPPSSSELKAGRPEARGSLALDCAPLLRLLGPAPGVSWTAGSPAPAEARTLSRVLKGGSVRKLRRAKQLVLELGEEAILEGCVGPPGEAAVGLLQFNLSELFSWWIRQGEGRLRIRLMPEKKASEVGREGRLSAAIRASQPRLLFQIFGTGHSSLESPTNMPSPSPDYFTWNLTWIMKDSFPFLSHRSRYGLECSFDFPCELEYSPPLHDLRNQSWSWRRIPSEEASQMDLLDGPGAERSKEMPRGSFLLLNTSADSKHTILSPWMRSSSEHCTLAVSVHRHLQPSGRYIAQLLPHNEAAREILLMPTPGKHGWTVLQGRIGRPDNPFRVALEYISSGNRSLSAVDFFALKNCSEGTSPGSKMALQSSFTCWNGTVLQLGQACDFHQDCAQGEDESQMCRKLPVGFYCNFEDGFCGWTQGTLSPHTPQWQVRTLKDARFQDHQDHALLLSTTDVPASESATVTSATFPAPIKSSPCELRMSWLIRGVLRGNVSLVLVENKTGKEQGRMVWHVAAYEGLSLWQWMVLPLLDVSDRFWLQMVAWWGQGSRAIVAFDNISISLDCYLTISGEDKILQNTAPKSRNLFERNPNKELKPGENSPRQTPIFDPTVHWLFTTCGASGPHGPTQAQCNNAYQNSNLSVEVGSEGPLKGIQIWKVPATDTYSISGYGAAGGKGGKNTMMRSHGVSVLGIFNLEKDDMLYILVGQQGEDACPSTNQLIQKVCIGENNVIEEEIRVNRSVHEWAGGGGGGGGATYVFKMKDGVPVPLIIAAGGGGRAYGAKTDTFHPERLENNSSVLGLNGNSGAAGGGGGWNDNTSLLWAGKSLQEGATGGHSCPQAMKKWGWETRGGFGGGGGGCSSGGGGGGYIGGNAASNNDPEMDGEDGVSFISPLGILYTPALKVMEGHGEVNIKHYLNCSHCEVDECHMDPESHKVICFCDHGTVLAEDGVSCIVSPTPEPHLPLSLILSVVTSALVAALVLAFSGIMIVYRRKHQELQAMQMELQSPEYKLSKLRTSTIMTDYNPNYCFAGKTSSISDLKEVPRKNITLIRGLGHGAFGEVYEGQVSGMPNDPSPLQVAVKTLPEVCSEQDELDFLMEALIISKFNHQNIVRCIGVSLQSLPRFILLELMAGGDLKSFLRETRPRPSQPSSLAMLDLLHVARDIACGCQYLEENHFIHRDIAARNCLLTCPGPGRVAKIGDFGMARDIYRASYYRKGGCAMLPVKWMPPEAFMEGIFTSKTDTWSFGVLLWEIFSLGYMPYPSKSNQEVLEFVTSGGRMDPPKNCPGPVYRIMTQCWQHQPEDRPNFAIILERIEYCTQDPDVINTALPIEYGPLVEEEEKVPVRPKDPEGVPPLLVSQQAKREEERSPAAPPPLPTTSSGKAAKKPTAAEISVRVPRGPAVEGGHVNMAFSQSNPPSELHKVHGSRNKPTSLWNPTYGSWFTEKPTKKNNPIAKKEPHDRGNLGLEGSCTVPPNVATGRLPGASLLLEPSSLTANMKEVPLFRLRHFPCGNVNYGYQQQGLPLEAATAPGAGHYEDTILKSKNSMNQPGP
# [25] = target: SIK2 (human) (UniProt Q9H0K1)
# [26] = target: DCLK1 (human) (UniProt O15075)
# [27] = target: MAP4K1 (human) (UniProt Q92918)
# [28] = target: CAMK1G (human) (UniProt Q96NX5)
# [29] = target: ZAP70 (human) (UniProt P43403)
# [30] = target: PIK3CB (human) (UniProt P42338)
# [31] = tested on: EGFR (human), P00533 [752-759 del]
# [32] = target: TBK1 (human) (UniProt Q9UHD2)
# [33] = target: CHEK1 (human) (UniProt O14757)
# [34] = target: PTK2 (human) (UniProt Q05397)
# [35] = target: TYRO3 (human) (UniProt Q06418)
# [36] = target: EIF2AK2 (human) (UniProt P19525)
# [37] = target: MAPK12 (human) (UniProt P53778)
# [38] = target: AURKB (human) (UniProt Q96GD4)
# [39] = target: TXK (human) (UniProt P42681)
# [40] = target: CDK5 (human) (UniProt Q00535)
SMILES,"kinase still bound, per cent of control [1]","kinase still bound, per cent of control [2]","kinase still bound, per cent of control [3]","kinase still bound, per cent of control [4]","kinase still bound, per cent of control [5]","kinase still bound, per cent of control [6]","kinase still bound, per cent of control [7]","kinase still bound, per cent of control [8]","kinase still bound, per cent of control [9]","kinase still bound, per cent of control [10]","kinase still bound, per cent of control [11]","kinase still bound, per cent of control [12]","kinase still bound, per cent of control [13]","kinase still bound, per cent of control [14]","kinase still bound, per cent of control [15]","kinase still bound, per cent of control [16]","kinase still bound, per cent of control [17]","kinase still bound, per cent of control [18]","kinase still bound, per cent of control [19]","kinase still bound, per cent of control [20]",also measured
COc1cc2ncnc(-n3nc(-c4ccccn4)nc3N)c2cc1OC,12%,84%,5.2%,6.4%,44%,14%,62%,20%,0.2%,8.8%,79%,22%,0.55%,74%,5.8%,61%,74%,100%,32%,100%,"kinase still bound, per cent of control [21]: 53%; kinase still bound, per cent of control [22]: 66%; kinase still bound, per cent of control [23]: 52%; kinase still bound, per cent of control [24]: 45%; kinase still bound, per cent of control [25]: 61%; kinase still bound, per cent of control [26]: 36%; kinase still bound, per cent of control [27]: 56%; kinase still bound, per cent of control [28]: 34%; kinase still bound, per cent of control [29]: 32%; kinase still bound, per cent of control [30]: 5%; kinase still bound, per cent of control [31]: 58%; kinase still bound, per cent of control [32]: 24%; kinase still bound, per cent of control [33]: 100%; kinase still bound, per cent of control [34]: 80%; kinase still bound, per cent of control [35]: 63%; kinase still bound, per cent of control [36]: 21%; kinase still bound, per cent of control [37]: 21%; kinase still bound, per cent of control [38]: 0.4%; kinase still bound, per cent of control [39]: 43%; kinase still bound, per cent of control [40]: 100%"
COc1cc(C(=O)N2CCC(N3CCN(C)CC3)CC2)ccc1Nc1ncc2c(n1)N(C)c1ccccc1C(=O)N2C,100%,84%,93%,10%,21%,94%,100%,87%,0%,97%,99%,52%,100%,99%,83%,100%,95%,100%,85%,100%,"kinase still bound, per cent of control [21]: 71%; kinase still bound, per cent of control [22]: 100%; kinase still bound, per cent of control [23]: 84%; kinase still bound, per cent of control [24]: 13%; kinase still bound, per cent of control [25]: 98%; kinase still bound, per cent of control [26]: 4.2%; kinase still bound, per cent of control [27]: 100%; kinase still bound, per cent of control [28]: 74%; kinase still bound, per cent of control [29]: 79%; kinase still bound, per cent of control [30]: 96%; kinase still bound, per cent of control [31]: 99%; kinase still bound, per cent of control [32]: 97%; kinase still bound, per cent of control [33]: 100%; kinase still bound, per cent of control [34]: 34%; kinase still bound, per cent of control [35]: 100%; kinase still bound, per cent of control [36]: 84%; kinase still bound, per cent of control [37]: 76%; kinase still bound, per cent of control [38]: 38%; kinase still bound, per cent of control [39]: 91%; kinase still bound, per cent of control [40]: 81%"
